Experimental findings from US20260109694A1, “HETEROCYCLIC COMPOUNDS AND USES THEREOF” (Kumquat Biosciences Inc., priority 2023, published 2026) are described below.

The structures appear in SMILES notation.

One assay addresses T1, PTP1B (Homo sapiens, UniProt P18031).
T1 sequence (P18031 1-435): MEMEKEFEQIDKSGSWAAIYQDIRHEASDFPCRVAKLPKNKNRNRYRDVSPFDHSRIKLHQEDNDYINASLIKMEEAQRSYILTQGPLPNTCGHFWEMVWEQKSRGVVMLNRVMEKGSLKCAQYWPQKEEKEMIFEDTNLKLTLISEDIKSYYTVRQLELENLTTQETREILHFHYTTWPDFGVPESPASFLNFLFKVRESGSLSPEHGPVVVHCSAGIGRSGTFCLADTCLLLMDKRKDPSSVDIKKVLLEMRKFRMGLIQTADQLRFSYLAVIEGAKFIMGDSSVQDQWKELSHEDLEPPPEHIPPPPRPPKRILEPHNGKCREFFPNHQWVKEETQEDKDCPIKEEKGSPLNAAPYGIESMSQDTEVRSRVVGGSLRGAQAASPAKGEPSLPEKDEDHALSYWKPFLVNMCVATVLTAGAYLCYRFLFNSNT
As to the kind of experiment: Phosphatase activity assay (DiFMUP substrate). In kind it is biochemical. Particulars: value bin printed in column head. In a few lines: (§1)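 Each enzyme (PTPN2 at 0.025 ng/ul) was premixed ~2 min with a 10-point inhibitor series in 50 mM HEPES pH 7.5, 150 mM NaCl, 0.5 mM EDTA, 1 mM DTT, 0.001% Tween-20 at room temperature. DiFMUP was added at each enzyme's Km (~45 μM for PTPN2). DiFMU fluorescence was followed 15–30 min, and IC50 came from 4-parameter fits of initial rates.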

In another assay the target is T2, PTPN2 (Homo sapiens, UniProt P17706).
T2 sequence (P17706 1-415): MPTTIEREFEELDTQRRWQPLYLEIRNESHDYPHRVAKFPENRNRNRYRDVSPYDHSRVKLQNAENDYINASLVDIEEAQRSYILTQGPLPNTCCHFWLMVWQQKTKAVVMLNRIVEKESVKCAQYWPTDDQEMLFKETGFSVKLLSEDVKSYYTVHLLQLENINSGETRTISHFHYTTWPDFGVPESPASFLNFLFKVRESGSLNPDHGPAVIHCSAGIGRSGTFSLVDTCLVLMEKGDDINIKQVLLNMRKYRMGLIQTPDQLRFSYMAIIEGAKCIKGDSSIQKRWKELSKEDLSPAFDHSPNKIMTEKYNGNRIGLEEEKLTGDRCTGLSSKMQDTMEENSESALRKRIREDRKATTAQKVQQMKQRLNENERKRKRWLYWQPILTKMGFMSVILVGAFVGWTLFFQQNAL
The experiment in a line: Phosphatase activity assay (DiFMUP substrate). Format: biochemical. The note with it: value bin printed in column head. In a few lines:
as §1

The term IC50 denotes the concentration needed to halve the response being measured. For `O=C1CN(c2c(O)ccc(OC3CCNC3)c2F)S(=O)(=O)N1` (stereo not shown) [Compound 142, 5-(2-fluoro-6-hydroxy-3-(pyrrolidin-3-yloxy)phenyl)-1,2,5-thiadiazolidin-3-one 1,1-dioxide], the IC50 was not above 1000 nM on PTP1B and more than 1000 nM at PTPN2.
For `CC(=O)OC(C)OC(=O)N1CC(c2ccc(O)c(N3CC(=O)NS3(=O)=O)c2F)=C[C@H]1CCC1CC1` (stereo partly drawn) [Compound 121, 1-acetoxyethyl (2R)-2-(2-cyclopropylethyl)-4-(3-(1,1-dioxido-4-oxo-1,2,5-thiadiazolidin-2-yl)-2-fluoro-4-hydroxyphenyl)-2,5-dihydro-1H-pyrrole-1-carboxylate] the same measures were not above 1000 nM and not above 1000 nM.
With `CC(OC(=O)[C@@H](N)C(C)C)OC(=O)N1CC(c2ccc(O)c(N3CC(=O)NS3(=O)=O)c2F)=C[C@H]1CCC1CCC1` (stereo partly drawn) [Compound 158, 1-((L-valyl)oxy)ethyl (2R)-2-(2-cyclobutylethyl)-4-(3-(1,1-dioxido-4-oxo-1,2,5-thiadiazolidin-2-yl)-2-fluoro-4-hydroxyphenyl)-2,5-dihydro-1H-pyrrole-1-carboxylate], the IC50 at PTP1B and at PTPN2 was not above 1000 nM each time.
`CC(C)(C)CC[C@H]1C=C(c2ccc(O)c(N3CC(=O)NS3(=O)=O)c2F)CN1` [Compound 120, (S)-5-(3-(5-(3,3-dimethylbutyl)-2,5-dihydro-1H-pyrrol-3-yl)-2-fluoro-6-hydroxyphenyl)-1,2,5-thiadiazolidin-3-one 1,1-dioxide]: the IC50 on PTP1B and at PTPN2 was not above 1000 nM each time.
`CC1(C)CC1CCC1C=C(c2ccc(O)c(N3CC(=O)NS3(=O)=O)c2F)CN1` (stereo not shown) [Compound 115, 5-(3-(5-(2-(2,2-dimethylcyclopropyl)ethyl)-2,5-dihydro-1H-pyrrol-3-yl)-2-fluoro-6-hydroxyphenyl)-1,2,5-thiadiazolidin-3-one 1,1-dioxide]: the IC50 at PTP1B and on PTPN2 was not above 1000 nM throughout.
Regarding `O=C1CN(c2c(O)ccc(C(=O)NC3CNC3)c2F)S(=O)(=O)N1` [Compound 124, N-(azetidin-3-yl)-3-(1,1-dioxido-4-oxo-1,2,5-thiadiazolidin-2-yl)-2-fluoro-4-hydroxybenzamide], the IC50 on PTP1B and at PTPN2 was more than 1000 nM throughout.
For the molecule `CC(=O)OC(OC(=O)N1CC(c2ccc(O)c(N3CC(=O)NS3(=O)=O)c2F)=C[C@H]1CCC1CCC1)C(C)C` (stereo partly drawn) [Compound 157, 1-acetoxy-2-methylpropyl (2R)-2-(2-cyclobutylethyl)-4-(3-(1,1-dioxido-4-oxo-1,2,5-thiadiazolidin-2-yl)-2-fluoro-4-hydroxyphenyl)-2,5-dihydro-1H-pyrrole-1-carboxylate], the IC50 on PTP1B and at PTPN2 was not above 1000 nM in each case.
With `O=C1CN(c2c(O)ccc(CC3CNC3)c2F)S(=O)(=O)N1` [Compound 103, 5-(3-(azetidin-3-ylmethyl)-2-fluoro-6-hydroxyphenyl)-1,2,5-thiadiazolidin-3-one 1,1-dioxide], the IC50 at PTP1B and on PTPN2 was not above 1000 nM in each case.
Consider `O=C1CN(c2c(O)ccc(C3=C[C@@H](CCC4CCC4)NC3)c2F)S(=O)(=O)N1` [Compound 116, (R)-5-(3-(5-(2-cyclobutylethyl)-2,5-dihydro-1H-pyrrol-3-yl)-2-fluoro-6-hydroxyphenyl)-1,2,5-thiadiazolidin-3-one 1,1-dioxide], for which the IC50 at PTP1B and at PTPN2 was not above 1000 nM in each case.
For `CC(C)CC[C@H]1C=C(c2ccc(O)c(N3CC(=O)NS3(=O)=O)c2F)CN1C(=O)O[C@H](C)OC(=O)C(C)C` [Compound 148, (R)-1-(isobutyryloxy)ethyl (S)-4-(3-(1,1-dioxido-4-oxo-1,2,5-thiadiazolidin-2-yl)-2-fluoro-4-hydroxyphenyl)-2-isopentyl-2,5-dihydro-1H-pyrrole-1-carboxylate], the IC50 on PTP1B and at PTPN2 was not above 1000 nM throughout.
`O=C1CN(c2c(O)ccc(CC3CCNCC3)c2F)S(=O)(=O)N1` [Compound 127, 5-(2-fluoro-6-hydroxy-3-(piperidin-4-ylmethyl)phenyl)-1,2,5-thiadiazolidin-3-one 1,1-dioxide]: the IC50 on PTP1B and at PTPN2 was not above 1000 nM throughout.
For the molecule `O=C1CN(c2c(O)ccc(C(=O)NC3CCNC3)c2F)S(=O)(=O)N1` (stereo not shown) [Compound 136, 3-(1,1-dioxido-4-oxo-1,2,5-thiadiazolidin-2-yl)-2-fluoro-4-hydroxy-N-(pyrrolidin-3-yl)benzamide], the IC50 on PTP1B and on PTPN2 was more than 1000 nM throughout.
As for `CC(C)CC[C@H]1C=C(c2ccc(O)c(N3CC(=O)NS3(=O)=O)c2F)CN1` [Compound 145, (S)-5-(2-fluoro-6-hydroxy-3-(5-isopentyl-2,5-dihydro-1H-pyrrol-3-yl)phenyl)-1,2,5-thiadiazolidin-3-one 1,1-dioxide], the concentration for half-maximal inhibition (IC50) at PTP1B and on PTPN2 was not above 1000 nM each time.
As for `O=C1CN(c2c(O)ccc(C3=CC(CCC4CCCC4)NC3)c2F)S(=O)(=O)N1` (stereo not shown) [Compound 101, 5-(3-(5-(2-cyclopentylethyl)-2,5-dihydro-1H-pyrrol-3-yl)-2-fluoro-6-hydroxyphenyl)-1,2,5-thiadiazolidin-3-one 1,1-dioxide], the IC50 on PTP1B and on PTPN2 was not above 1000 nM throughout.
